Experimental data taken from the NIST ThermoML archive (doi:10.1007/s10765-010-0742-8).
“And” between values parts separate entries of the source, which are not always exact repeats. Equal entries are not always repeated. Numbers after ± are expanded uncertainties.

Tests used:
[1] = refractive index (Na D-line) (dimensionless); mn = molality of the nth substance listed, in mol/kg; conditions: 101 kPa, Liquid, Standard Abbe refractometry, m1 = 0.1
[2] = mn = molality of the nth substance listed, in mol/kg; conditions: 101 kPa, Liquid, m1 = 0.1; for viscosity: Capillary tube (Ostwald / Ubbelohde) method; for mass density: Pycnometric method

O=C[C@H](O)[C@@H](O)[C@@H](O)[C@H](O)CO [(+)-galactose] + O
Conditions | mass density, [2] | refractive index, [1] | viscosity, [2] [mPa·s]
298.15 K | 1003.9 ± 0.3 kg/m3 | 1.3345 ± 0.0004 | 0.9284 ± 0.0067
303.15 K | 1002.3 ± 0.4 kg/m3 and 1002.4 ± 0.4 kg/m3 | 1.334 ± 0.0004 and 1.3339 ± 0.0004 | 0.8345 ± 0.0061
308.15 K | 1001 ± 0.4 kg/m3 | 1.3335 ± 0.0004 | 0.7518 ± 0.0055
313.15 K | 999.5 ± 0.4 kg/m3 | 1.3329 ± 0.0004 | 0.6858 ± 0.0051
